Here are results for twelve molecules from PubChem BioAssay (NCI).

What all share (experiment): NCI-60 cell line screen, 48 h
The test system of assay [1] is OVCAR-8 ovarian.
For assay [2], the system named is SF-539 CNS.
The subject of assay [3] is OVCAR-5 ovarian.
Assay [4] concerns SF-295 CNS.
Assay [5] relates to MDA-MB-231 breast.
The test system of assay [6] is IGROV1 ovarian.
The test system of assay [7] is UO-31 renal.
Assay [8] has as its system HS 578T breast.
The subject of assay [9] is OVCAR-3 ovarian.
Assay [10] concerns SNB-75 CNS.

Molecules are shown by their SMILES.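 Following 48 hours of exposure in 96-well plates, responses at five concentrations were used to interpolate endpoints linearly. The concentration for full growth arrest is given as TGI.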 Some results are limits rather than exact numbers.

On to `O=c1[nH]c(Nc2cc(Cl)cc(Cl)c2)nc2nc[nH]c12`, for which the TGI in assay [1], in [2], in [3], in assay [4], in assay [5] and in assay [6] was above 75 µM throughout. Besides, the TGI is above 75 µM in [7], 68.5 µM in assay [8], above 75 µM in assay [9] and above 75 µM in assay [10].

In the case of `COc1ccc(/C=C2\CCC(CNc3ccc(OC)cc3)C2=O)cc1` (stereo not given), the TGI is 36.3 µM in assay [1]; 36.4 µM in [2]; 38.1 µM in assay [3]; above 31.6 µM in [4]; 35.7 µM in assay [5]; 19.2 µM in assay [6]. For the same molecule, the TGI in assay [7] was 36.1 µM; in [8], above 100 µM; in assay [9], 31.6 µM; in assay [10] it was 94.5 µM.

As for `COc1ccc2sc(-n3nc4ccccc4c3Nc3nc4ccc(OC)cc4s3)nc2c1`, the TGI in assay [1] turned out to be 6.17 µM; in assay [2], 4.5 µM; in [3] it was 13.8 µM; in assay [4] it was 12.8 µM; in [5], 10.9 µM; in assay [6], 8.47 µM. Moreover, the TGI in assay [7] came out at 34 µM; in [8], 5.61 µM; in assay [9], 7.45 µM; in assay [10] it was 9.92 µM.

Consider `CC(C)[Si](OC1=CCC[C@H]2NC(=O)[C@@H](Cc3ccccc3)[C@@]12C)(C(C)C)C(C)C`, for which the TGI in assay [1] came out at 24.8 µM; in [2], 19.1 µM; in assay [3], 21.3 µM; in assay [4], 17.2 µM; in [5], 26.5 µM; in assay [6], 26.7 µM. Further, the TGI is 22.3 µM in assay [7], 18.5 µM in assay [8], 19.7 µM in assay [9] and 31.2 µM in assay [10].

`CCOC(=O)NC(NC1=NCCS1)(C(=O)OCC)C(F)(F)F` (stereo not given): the TGI in assay [1], in assay [2], in [3], in [4], in assay [5] and in assay [6] was above 100 µM in each case. Also, the TGI in assay [7], in [8], in assay [9] and in [10] was above 100 µM in each case.

Consider `CCn1cc(C(=O)O)c(=O)c2cc3c(cc21)S(=O)(=O)CC3`, for which the TGI in assay [1], in assay [2], in [3], in assay [4], in assay [5] and in assay [6] was above 100 µM throughout. Besides, the TGI in [7], in assay [8], in assay [9] and in [10] was above 100 µM throughout.

In the case of `O=S(=O)(O)ON=C1c2ccccc2-c2ccccc21`, the TGI in assay [1], in [2], in [3], in assay [4], in [5] and in assay [6] was above 100 µM throughout. Moreover, the TGI in [7], in assay [8], in [9] and in [10] was above 100 µM in each case.

`O=c1oc2cc(O)ccc2c(O)c1C(c1cccnc1)c1c(O)c2ccc(O)cc2oc1=O`: the TGI in assay [1], in assay [2], in assay [3], in assay [4], in [5] and in assay [6] was above 100 µM in each case. Moreover, the TGI in assay [7], in assay [8], in [9] and in [10] was above 100 µM throughout.

`CN1C(=O)[C@@H]2[C@@H]3c4ccccc4N(S(=O)(=O)C(F)(F)F)[C@@H]3c3[nH]c4ccccc4c3[C@@H]2C1=O`: the TGI in [1] is above 100 µM; in [2], above 100 µM; in assay [3], above 100 µM; in assay [4] it was above 100 µM; in assay [5], above 100 µM; in assay [6] it was 5.43 µM. Also, the TGI in assay [7], in [8], in assay [9] and in [10] was above 100 µM throughout.

For the molecule `O=C1[C@@H]2[C@@H](c3ccccc3)[C@]2(Cl)C(=O)[C@H]2[C@H](c3ccccc3)[C@@]12Cl`, the TGI in [1], in [2], in assay [3], in assay [4], in [5] and in assay [6] was above 100 µM each time. The TGI in [7], in [8], in assay [9] and in [10] was above 100 µM each time.

On to `Cc1cc(Cc2c(F)c(F)c(C(c3cc(C)no3)c3c(F)c(F)c(F)c(F)c3F)c(F)c2F)on1` (stereo not given), for which the TGI in assay [1], in [2], in assay [3], in [4], in assay [5] and in assay [6] was above 100 µM in each case. The TGI in assay [7], in [8], in assay [9] and in [10] was above 100 µM in each case.

In the case of `N#C/C(=C\NC(=S)c1ccncc1)c1nc2ccccc2s1`, the TGI in assay [1], in assay [2], in [3], in [4], in assay [5] and in assay [6] was above 100 µM in each case. Further, the TGI in [7], in assay [8], in assay [9] and in assay [10] was above 100 µM throughout.
